Measurements from patent US8937052B2, “Therapeutic protocols using hyaluronan” (Alchemia Oncology Pty Limited, priority 2005, dated 2015).
Where a name gives a salt, the structure may show the parent alone.

Experiments:
[1] = In situ perfusion: survival until experimental end-point; type: in vivo, Wistar rats; conditions: irinotecan 60 mg/kg single i.v.
[2] = irinotecan 60 mg/kg i.v. (HyCAMP 26.6/60); 90 minute time point
[3] = irinotecan 30 mg/kg i.v. (HyCAMP 26.6/30); 120 min
[4] = irinotecan 30 mg/kg i.v.
[5] = molecular target: T1, tumour cell endogenous beta-glucuronidase (Homo sapiens, UniProt P08236); assay: Endogenous beta-glucuronidase activity in tumour cell lysates incubated overnight with HA, compared to samples not containing hyaluronan; type: biochemical; conditions: modelled from ≧2 μg of HA per μg tumour cell protein and 0.135 ng protein/cell
T1 construct: Activity of Endogenous Beta-Glucuronidase in Tumor Cells In Vitro; endogenous in cells; host or cells: HCT-116, LIM-1215, LIM-2099, SK-CO1, SW-1222, HT-29, SW-620, MSTO-211H, MDA-MB-468, MDA-MB-435 lysates
T1 sequence (P08236 23-651): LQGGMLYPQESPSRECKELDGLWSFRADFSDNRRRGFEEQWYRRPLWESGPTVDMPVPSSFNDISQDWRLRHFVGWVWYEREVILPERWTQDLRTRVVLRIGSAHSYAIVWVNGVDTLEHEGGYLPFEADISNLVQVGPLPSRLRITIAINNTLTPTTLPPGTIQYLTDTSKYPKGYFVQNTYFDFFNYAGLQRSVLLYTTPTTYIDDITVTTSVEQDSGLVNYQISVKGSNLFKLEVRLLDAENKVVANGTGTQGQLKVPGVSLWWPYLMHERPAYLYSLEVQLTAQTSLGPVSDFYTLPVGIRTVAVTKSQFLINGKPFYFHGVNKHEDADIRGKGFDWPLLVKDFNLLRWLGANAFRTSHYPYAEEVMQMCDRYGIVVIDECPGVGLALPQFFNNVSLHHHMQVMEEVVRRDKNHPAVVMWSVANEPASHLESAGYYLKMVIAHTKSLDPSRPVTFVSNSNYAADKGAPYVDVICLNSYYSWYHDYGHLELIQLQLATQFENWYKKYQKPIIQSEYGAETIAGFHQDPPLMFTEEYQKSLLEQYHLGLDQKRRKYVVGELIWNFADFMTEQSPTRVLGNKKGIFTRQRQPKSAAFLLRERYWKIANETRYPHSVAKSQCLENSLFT
Description: Stocks of the tumor cell lysates (0.8 mg protein/ml) were prepared from the original cell lysates. The hyaluronan stock of 10 mg/ml (10 kDa & 860 kDa) was diluted with potassium phosphate buffer to achieve 8 mg/ml, 3.2 mg/ml, 1.6 mg/ml, 0.4 mg/ml, 0.2 mg/ml, 0.04 mg/ml, 0.02 mg/ml and 0.0008 mg/ml of hyaluronan. The 25 mg/ml of <2 kDa HA was diluted further with potassium phosphate buffer to achieve 8 mg/ml, 3.2 mg/ml, 1.6 mg/ml, 0.4 mg/ml, 0.2 mg/ml, 0.04 mg/ml, 0.02 mg/ml and 0.0008 mg/ml of hyaluronan. The assay samples were prepared by aliquoting 125 μl of the different dilutions of hyaluronan to an Eppendorf tube containing 125 μl of 0.8 mg protein/ml cell lysates of the following cell lines; HCT-116, LIM-1215, LIM-2099, SK-CO1, SW-1222, HT-29, SW-620, MSTO-211H, MDA-MB-468 and MDA-MB-435. […] On completion of the incubation, the samples were thoroughly mixed by repeated invert mixing (˜20 times) after which the beta-glucuronidase was quantified using the 96-well-plate method.
The assay was performed in the wells of a black clear-bottom 96-well-plate where 50 μL of the tumour cell lysates (20 μg protein) were added to the wells and 50 μL of 75 mM of potassium phosphate buffer was used as the control blanking well. […] On completion of the incubation, 50 μL of stop buffer was added and the plate was read at 350 nm excitation and 450 nm emission on a Fluostar Optima plate reader.

Carboxylesterase = Carboxylesterase activity in tissue homogenates of the liver and the GI-tract; type: biochemical
Text: Carboxylesterase • 2. beta-glucuronidase
Tissue homogenates of the liver and the GI-tract were used as the source of each enzyme. […] In addition to this mechanism, inhibition of beta-glucuronidase in the lumen of the GI tract would prevent the generation of SN-38 from SN-38G.

[6] = in vivo
Text: HA. […] All body organs and fluids were removed, weighed and [^3H] radioactivity quanitated using β-scintillation counting.

HA per cell resulting in stimulation of endogenous beta-glucuronidase activity [5] [pg HA/cell] | HA per tumour cell [6] | HA that would accumulate per gram of tumour [6] | Molecule | survival until experimental end-point [1] | cumulative biliary excretion of CPT-11 [2] [µg] | cumulative intestinal exsorption of CPT-11 [3] [µg] | quantities of SN-38 found in the spleen and lung [4] | effect on carboxylesterase activity (Carboxylesterase)
– | – | – | CCc1c2c(nc3ccc(OC(=O)N4CCC(N5CCCCC5)CC4)cc13)-c1cc3c(c(=O)n1C2)COC(=O)[C@]3(O)CC [CPT-11, Irinotecan hydrochloride] | only one rat survived | 1388 | 525 | could not be detected | –
≥ 270 | 51.6 pg of HA/cell | approximately 51.6 mg | hyaluronan [HA] | – | – | – | – | did not affect the activity of carboxylesterase
